Reference: paper PMC11397024, “Strategic Fluorination to Achieve a Potent, Selective, Metabolically Stable, and Orally Bioavailable Inhibitor of CSNK2” (Molecules, 2024)

Assays:
Assay in all cases: NanoBRET K192
Assay type in all cases: cell-based
MELK = molecular target: T1, MELK (Homo sapiens, UniProt Q14680); settings: HEK293
T1 construct: purchased Promega (NanoBRET Target Engagement K192 Kinase Selectivity System)
In short: (§1)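 HEK293 cells were transfected overnight with NanoLuc–kinase fusion vectors, then treated for 2 h at 37 °C with compound (added as 100 μM working solution) plus K10 tracer. BRET was read at 450/610 nm after substrate and extracellular inhibitor, and fractional occupancy was calculated against no-compound controls.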

RIPK2 = molecular target: T2, RIPK2 (Homo sapiens, UniProt O43353); settings: HEK293
T2 construct: purchased Promega (NanoBRET Target Engagement K192 Kinase Selectivity System)
In short: as §1

NEK1 = molecular target: T3, NEK1 (Homo sapiens, UniProt Q96PY6); settings: HEK293
T3 construct: purchased Promega (NanoBRET Target Engagement K192 Kinase Selectivity System)
T3 sequence (Q96PY6 whole entry): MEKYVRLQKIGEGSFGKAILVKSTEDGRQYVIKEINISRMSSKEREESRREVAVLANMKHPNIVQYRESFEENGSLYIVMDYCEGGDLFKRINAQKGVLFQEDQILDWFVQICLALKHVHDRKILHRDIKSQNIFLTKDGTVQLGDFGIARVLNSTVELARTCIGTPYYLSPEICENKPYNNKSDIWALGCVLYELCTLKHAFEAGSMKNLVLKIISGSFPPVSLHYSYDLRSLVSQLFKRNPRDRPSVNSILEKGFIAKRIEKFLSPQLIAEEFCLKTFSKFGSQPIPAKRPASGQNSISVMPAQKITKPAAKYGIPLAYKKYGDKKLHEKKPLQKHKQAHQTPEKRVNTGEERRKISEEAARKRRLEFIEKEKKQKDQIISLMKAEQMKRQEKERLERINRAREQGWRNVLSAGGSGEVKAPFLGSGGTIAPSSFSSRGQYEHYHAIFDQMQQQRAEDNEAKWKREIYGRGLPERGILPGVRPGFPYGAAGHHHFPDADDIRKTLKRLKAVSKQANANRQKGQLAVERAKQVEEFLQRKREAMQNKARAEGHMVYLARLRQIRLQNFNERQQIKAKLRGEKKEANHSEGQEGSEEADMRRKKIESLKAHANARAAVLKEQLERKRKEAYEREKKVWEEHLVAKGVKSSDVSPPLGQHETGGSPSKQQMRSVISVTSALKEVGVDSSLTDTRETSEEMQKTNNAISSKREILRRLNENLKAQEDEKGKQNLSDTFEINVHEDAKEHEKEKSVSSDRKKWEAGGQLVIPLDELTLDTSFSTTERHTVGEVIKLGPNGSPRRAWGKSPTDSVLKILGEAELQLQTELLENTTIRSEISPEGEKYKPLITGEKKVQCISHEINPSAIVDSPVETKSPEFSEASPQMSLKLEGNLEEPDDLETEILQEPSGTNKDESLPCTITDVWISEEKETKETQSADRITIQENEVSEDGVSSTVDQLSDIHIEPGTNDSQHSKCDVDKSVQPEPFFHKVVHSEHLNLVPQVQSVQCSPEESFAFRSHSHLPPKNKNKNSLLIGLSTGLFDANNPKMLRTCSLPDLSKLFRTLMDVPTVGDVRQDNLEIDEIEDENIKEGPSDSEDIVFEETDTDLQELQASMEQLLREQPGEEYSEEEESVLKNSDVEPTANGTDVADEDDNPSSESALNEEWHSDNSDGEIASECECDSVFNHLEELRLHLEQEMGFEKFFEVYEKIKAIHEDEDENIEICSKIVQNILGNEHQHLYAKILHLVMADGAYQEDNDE
In short: as §1

TXK = molecular target: T4, TXK (Homo sapiens, UniProt P42681); settings: HEK293
T4 construct: host or cells: HEK293
T4 sequence (P42681 whole entry): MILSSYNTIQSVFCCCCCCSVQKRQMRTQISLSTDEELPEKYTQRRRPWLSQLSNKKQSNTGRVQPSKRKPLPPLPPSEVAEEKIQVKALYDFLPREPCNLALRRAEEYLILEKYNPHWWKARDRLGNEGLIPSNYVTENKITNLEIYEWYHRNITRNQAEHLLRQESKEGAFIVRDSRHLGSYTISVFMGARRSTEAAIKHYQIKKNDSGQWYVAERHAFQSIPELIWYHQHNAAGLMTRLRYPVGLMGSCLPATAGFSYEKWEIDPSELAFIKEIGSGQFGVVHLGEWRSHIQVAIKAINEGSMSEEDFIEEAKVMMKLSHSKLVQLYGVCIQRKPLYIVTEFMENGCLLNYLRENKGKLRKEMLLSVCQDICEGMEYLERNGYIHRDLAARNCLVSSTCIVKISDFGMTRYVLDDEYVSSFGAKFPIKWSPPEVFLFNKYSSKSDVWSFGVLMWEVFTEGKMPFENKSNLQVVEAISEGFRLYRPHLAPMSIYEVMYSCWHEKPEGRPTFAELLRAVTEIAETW
In short: as §1

FGFR1 = molecular target: T5, FGFR1 (Homo sapiens, UniProt P11362); settings: HEK293
T5 construct: purchased Promega (NanoBRET Target Engagement K192 Kinase Selectivity System)
In short: as §1

CLK1 = molecular target: T6, CLK1 (Homo sapiens, UniProt P49759)
T6 construct: purchased Promega (NanoBRET Target Engagement K192 Kinase Selectivity System)
T6 sequence (P49759 whole entry): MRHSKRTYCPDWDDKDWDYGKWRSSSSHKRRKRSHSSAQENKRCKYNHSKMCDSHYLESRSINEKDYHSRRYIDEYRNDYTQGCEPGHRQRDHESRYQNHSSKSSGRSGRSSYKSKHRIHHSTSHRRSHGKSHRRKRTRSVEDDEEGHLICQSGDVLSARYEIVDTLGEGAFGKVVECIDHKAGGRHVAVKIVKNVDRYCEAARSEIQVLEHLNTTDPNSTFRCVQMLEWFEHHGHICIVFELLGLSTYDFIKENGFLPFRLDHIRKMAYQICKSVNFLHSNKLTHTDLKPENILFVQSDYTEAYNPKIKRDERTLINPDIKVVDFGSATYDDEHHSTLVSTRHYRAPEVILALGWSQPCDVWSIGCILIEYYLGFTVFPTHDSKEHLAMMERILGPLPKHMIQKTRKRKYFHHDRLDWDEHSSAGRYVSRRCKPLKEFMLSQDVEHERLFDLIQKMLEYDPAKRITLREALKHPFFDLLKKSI
In short: as §1

MARK2 = molecular target: T7, MARK2 (Homo sapiens, UniProt Q7KZI7); settings: HEK293
T7 construct: purchased Promega (NanoBRET Target Engagement K192 Kinase Selectivity System)
In short: as §1

INSR = molecular target: T8, INSR (Homo sapiens, UniProt P06213); settings: HEK293
T8 construct: purchased Promega (NanoBRET Target Engagement K192 Kinase Selectivity System)
In short: as §1

CDK7 + pMB = molecular target: T9, CDK7 + pMB (Homo sapiens, UniProt P50613); settings: HEK293
T9 construct: purchased Promega (NanoBRET Target Engagement K192 Kinase Selectivity System)
T9 sequence (P50613 whole entry): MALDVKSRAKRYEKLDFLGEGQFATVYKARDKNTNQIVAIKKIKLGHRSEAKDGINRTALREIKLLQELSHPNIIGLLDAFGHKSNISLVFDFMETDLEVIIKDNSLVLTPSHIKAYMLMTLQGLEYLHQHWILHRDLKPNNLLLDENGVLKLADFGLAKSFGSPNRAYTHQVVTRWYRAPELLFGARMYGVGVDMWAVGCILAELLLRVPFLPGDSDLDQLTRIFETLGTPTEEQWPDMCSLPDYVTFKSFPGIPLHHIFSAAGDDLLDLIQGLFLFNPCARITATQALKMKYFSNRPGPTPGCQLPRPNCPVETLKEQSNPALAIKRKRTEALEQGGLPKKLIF
In short: as §1

MAST3 = molecular target: T10, MAST3 (Homo sapiens, UniProt O60307); settings: HEK293
T10 construct: purchased Promega (NanoBRET Target Engagement K192 Kinase Selectivity System)
In short: as §1

PAK4 = molecular target: T11, PAK4 (Homo sapiens, UniProt O96013); settings: HEK293
T11 construct: purchased Promega (NanoBRET Target Engagement K192 Kinase Selectivity System)
In short: as §1

TIE1 = molecular target: T12, TIE1 (Homo sapiens, UniProt P35590); settings: HEK293
T12 construct: purchased Promega (NanoBRET Target Engagement K192 Kinase Selectivity System)
In short: as §1

RPS6KA1 = molecular target: T13, RPS6KA1 (Homo sapiens, UniProt Q15418); settings: HEK293
T13 construct: purchased Promega (NanoBRET Target Engagement K192 Kinase Selectivity System)
In short: as §1

LCK = molecular target: T14, LCK (Homo sapiens, UniProt P06239); settings: HEK293
T14 construct: purchased Promega (NanoBRET Target Engagement K192 Kinase Selectivity System)
T14 sequence (P06239 whole entry): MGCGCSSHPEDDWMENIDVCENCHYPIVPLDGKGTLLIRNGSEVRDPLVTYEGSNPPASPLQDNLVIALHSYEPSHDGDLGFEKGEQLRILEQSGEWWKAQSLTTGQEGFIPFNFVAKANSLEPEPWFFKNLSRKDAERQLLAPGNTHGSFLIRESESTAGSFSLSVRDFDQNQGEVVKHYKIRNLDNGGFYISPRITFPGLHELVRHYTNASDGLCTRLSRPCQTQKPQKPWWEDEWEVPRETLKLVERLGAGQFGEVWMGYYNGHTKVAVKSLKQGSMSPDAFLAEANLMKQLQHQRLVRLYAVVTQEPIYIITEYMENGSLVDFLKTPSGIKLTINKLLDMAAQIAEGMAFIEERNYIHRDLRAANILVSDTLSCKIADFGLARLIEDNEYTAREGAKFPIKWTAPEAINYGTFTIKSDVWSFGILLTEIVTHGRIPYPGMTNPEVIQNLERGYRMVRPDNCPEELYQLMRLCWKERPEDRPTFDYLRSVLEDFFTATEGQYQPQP
In short: as §1

STK38 = molecular target: T15, STK38 (Homo sapiens, UniProt Q15208); settings: HEK293
T15 construct: purchased Promega (NanoBRET Target Engagement K192 Kinase Selectivity System)
In short: as §1

CDK16 + Y = molecular target: T16, CDK16 + Y (Homo sapiens, UniProt Q00536); settings: HEK293
T16 construct: purchased Promega (NanoBRET Target Engagement K192 Kinase Selectivity System)
In short: as §1

SNF1LK2 = molecular target: T17, SNF1LK2 (Homo sapiens, UniProt Q9H0K1); settings: HEK293
T17 construct: host or cells: HEK293
In short: as §1

LATS1 = molecular target: T18, LATS1 (Homo sapiens, UniProt O95835); settings: HEK293
T18 construct: purchased Promega (NanoBRET Target Engagement K192 Kinase Selectivity System)
In short: as §1

DCLK3 = molecular target: T19, DCLK3 (Homo sapiens, UniProt Q9C098); settings: HEK293
T19 construct: purchased Promega (NanoBRET Target Engagement K192 Kinase Selectivity System)
In short: as §1

PTK6 = molecular target: T20, PTK6 (Homo sapiens, UniProt Q13882); settings: HEK293
T20 construct: purchased Promega (NanoBRET Target Engagement K192 Kinase Selectivity System)
In short: as §1

BRSK1 = molecular target: T21, BRSK1 (Homo sapiens, UniProt Q8TDC3); settings: HEK293
T21 construct: purchased Promega (NanoBRET Target Engagement K192 Kinase Selectivity System)
T21 sequence (Q8TDC3 whole entry): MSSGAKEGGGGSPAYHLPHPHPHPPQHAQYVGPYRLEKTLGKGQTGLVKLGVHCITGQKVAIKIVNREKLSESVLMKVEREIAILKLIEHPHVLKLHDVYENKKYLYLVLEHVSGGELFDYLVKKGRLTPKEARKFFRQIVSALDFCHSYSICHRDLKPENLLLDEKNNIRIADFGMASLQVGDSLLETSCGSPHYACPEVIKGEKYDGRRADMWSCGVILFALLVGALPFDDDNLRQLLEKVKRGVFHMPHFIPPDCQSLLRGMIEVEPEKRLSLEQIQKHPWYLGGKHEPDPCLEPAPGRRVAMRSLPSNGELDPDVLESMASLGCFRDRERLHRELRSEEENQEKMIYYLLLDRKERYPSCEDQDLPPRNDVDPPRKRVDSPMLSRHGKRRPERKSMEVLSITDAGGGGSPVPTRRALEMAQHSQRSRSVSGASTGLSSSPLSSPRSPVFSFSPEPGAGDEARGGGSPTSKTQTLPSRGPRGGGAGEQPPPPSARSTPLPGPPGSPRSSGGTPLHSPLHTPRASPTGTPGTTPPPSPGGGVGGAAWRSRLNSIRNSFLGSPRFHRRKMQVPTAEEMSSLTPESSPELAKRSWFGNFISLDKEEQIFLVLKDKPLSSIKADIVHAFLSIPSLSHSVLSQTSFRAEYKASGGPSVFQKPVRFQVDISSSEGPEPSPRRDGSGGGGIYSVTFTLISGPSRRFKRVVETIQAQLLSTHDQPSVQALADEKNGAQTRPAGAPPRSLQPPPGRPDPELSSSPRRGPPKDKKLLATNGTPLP
In short: as §1

MAPK14 = molecular target: T22, MAPK14 (Homo sapiens, UniProt Q16539); settings: HEK293
T22 construct: purchased Promega (NanoBRET Target Engagement K192 Kinase Selectivity System)
In short: as §1

RPS6KA6 = molecular target: T23, RPS6KA6 (Homo sapiens, UniProt Q9UK32); settings: HEK293
T23 construct: purchased Promega (NanoBRET Target Engagement K192 Kinase Selectivity System)
In short: as §1

STK16 = molecular target: T24, STK16 (Homo sapiens, UniProt O75716); settings: HEK293
T24 construct: purchased Promega (NanoBRET Target Engagement K192 Kinase Selectivity System)
In short: as §1

PLK2 = molecular target: T25, PLK2 (Homo sapiens, UniProt Q9NYY3); settings: HEK293
T25 construct: purchased Promega (NanoBRET Target Engagement K192 Kinase Selectivity System)
In short: as §1

STK4 = molecular target: T26, STK4 (Homo sapiens, UniProt Q13043); settings: HEK293
T26 construct: purchased Promega (NanoBRET Target Engagement K192 Kinase Selectivity System)
T26 sequence (Q13043 whole entry): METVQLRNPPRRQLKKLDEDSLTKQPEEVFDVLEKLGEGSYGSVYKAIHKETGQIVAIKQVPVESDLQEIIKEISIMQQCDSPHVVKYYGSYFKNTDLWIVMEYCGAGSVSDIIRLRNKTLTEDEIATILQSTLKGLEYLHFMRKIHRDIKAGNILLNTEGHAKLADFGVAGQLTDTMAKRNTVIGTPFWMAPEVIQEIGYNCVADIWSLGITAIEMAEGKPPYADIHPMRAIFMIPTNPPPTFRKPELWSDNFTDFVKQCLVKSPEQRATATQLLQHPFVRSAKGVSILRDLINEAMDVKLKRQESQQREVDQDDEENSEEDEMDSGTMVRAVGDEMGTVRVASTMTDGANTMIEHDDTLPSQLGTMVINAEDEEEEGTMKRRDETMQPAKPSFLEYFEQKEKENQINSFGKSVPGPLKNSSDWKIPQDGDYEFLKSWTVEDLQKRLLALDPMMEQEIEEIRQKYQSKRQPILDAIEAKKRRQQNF
In short: as §1

EPHA4 = molecular target: T27, EPHA4 (Homo sapiens, UniProt P54764); settings: HEK293
T27 construct: purchased Promega (NanoBRET Target Engagement K192 Kinase Selectivity System)
In short: as §1

HIPK4 = molecular target: T28, HIPK4 (Homo sapiens, UniProt Q8NE63); settings: HEK293
T28 construct: purchased Promega (NanoBRET Target Engagement K192 Kinase Selectivity System)
T28 sequence (Q8NE63 whole entry): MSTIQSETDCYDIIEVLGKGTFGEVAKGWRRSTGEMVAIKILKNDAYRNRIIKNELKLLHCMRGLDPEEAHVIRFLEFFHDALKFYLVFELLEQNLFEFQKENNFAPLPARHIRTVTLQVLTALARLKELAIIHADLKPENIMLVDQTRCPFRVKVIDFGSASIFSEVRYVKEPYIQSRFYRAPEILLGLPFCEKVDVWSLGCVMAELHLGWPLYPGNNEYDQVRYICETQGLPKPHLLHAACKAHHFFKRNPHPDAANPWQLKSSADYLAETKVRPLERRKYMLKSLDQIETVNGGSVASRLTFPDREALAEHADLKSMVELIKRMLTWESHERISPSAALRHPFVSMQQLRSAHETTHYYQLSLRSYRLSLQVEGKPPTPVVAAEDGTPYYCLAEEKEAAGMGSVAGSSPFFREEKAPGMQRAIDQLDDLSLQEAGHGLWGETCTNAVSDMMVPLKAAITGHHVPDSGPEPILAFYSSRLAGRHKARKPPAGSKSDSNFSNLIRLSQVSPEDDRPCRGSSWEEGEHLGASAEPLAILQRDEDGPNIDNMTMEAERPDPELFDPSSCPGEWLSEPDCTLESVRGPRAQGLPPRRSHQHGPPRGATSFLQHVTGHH
In short: as §1

With `CCC(=O)Nc1cc(Nc2cc(NC3CC3)n3ncc(C#N)c3n2)c(F)cc1N1CCC[C@H](NC)C1` [Compound 2, (S)-N-(5-((3-cyano-7-(cyclopropylamino)pyrazolo[1,5-a]pyrimidin-5-yl)amino)-4-fluoro-2-(3-(methylamino)piperidin-1-yl)phenyl)propionamide] the receptor occupancy at 10 µM (MELK) was 24.5%, the receptor occupancy at 10 µM (RIPK2) was 9.3% and the receptor occupancy at 10 µM (NEK1) was -1.9%. The receptor occupancy at 10 µM (TXK) was -3.2%, the receptor occupancy at 10 µM (FGFR1) was 10.4% and the “% occupancy at 10 μM” value (CLK1; CLK1, HEK293) was 76%. For the same compound, the receptor occupancy at 10 µM (CLK1; HEK293, CLK1) was 76.2%, the receptor occupancy at 10 µM (MARK2) was 14.2% and the receptor occupancy at 10 µM (INSR) was 1.2%. It also gave a receptor occupancy at 10 µM (CDK7 + pMB) of 43.9%, a receptor occupancy at 10 µM (MAST3) of -0.9% and a receptor occupancy at 10 µM (PAK4) of 4.5%. The receptor occupancy at 10 µM (TIE1) was 20.6%, the receptor occupancy at 10 µM (RPS6KA1) was 7.1% and the receptor occupancy at 10 µM (LCK) was 4.9%. The receptor occupancy at 10 µM (STK38) was -0.8%, the receptor occupancy at 10 µM (CDK16 + Y) was 25.8% and the receptor occupancy at 10 µM (SNF1LK2) was -4.8%. For the same compound, the receptor occupancy at 10 µM (LATS1) was -0.4%, the receptor occupancy at 10 µM (DCLK3) was 44.7% and the receptor occupancy at 10 µM (PTK6) was 4.4%. It also gave a receptor occupancy at 10 µM (BRSK1) of 17.7%, a receptor occupancy at 10 µM (MAPK14) of 10.4% and a receptor occupancy at 10 µM (RPS6KA6) of 10.6%. The receptor occupancy at 10 µM (STK16) was 16.4%, the receptor occupancy at 10 µM (PLK2) was 29.6% and the receptor occupancy at 10 µM (STK4) was 6.9%. It also gave a receptor occupancy at 10 µM (EPHA4) of 7.8% and a receptor occupancy at 10 µM (HIPK4) of 39.9%.
